Experimental data from ChEMBL document CHEMBL5247608, “HIV-1 gp120-CXCR4 recognition probed with synthetic nanomolar affinity D-peptides containing fragments of gp120 V3 loop” (Eur J Med Chem, 2022).
The source made the active and inactive calls. The calls are words filed in the database; no cut-off is given here. Where a SMILES comes first, the peptide text is derived from it. [ ]: non-standard residue; d: D form.

Key:
[1] = test system: C-X-C chemokine receptor type 4 (Homo sapiens), P61073 [W161A]; experiment: Displacement of 12G5 mAb from CXCR4 W161A mutant (unknown origin) expressed in CHO cells at 500 nM incubated for 40 mins by spectrophotometric method; assay type: cell-based
[2] = test system: C-X-C chemokine receptor type 4 (Homo sapiens), P61073 [Y116A]; experiment: Displacement of 12G5 mAb from CXCR4 Y116A mutant (unknown origin) expressed in CHO cells at 500 nM incubated for 40 mins by spectrophotometric method; assay type: cell-based
[3] = test system: C-X-C chemokine receptor type 4 (Homo sapiens), P61073 [D193A]; experiment: Displacement of 12G5 mAb from CXCR4 D193A mutant (unknown origin) expressed in CHO cells at 500 nM incubated for 40 mins by spectrophotometric method; assay type: cell-based
[4] = test system: C-X-C chemokine receptor type 4 (Homo sapiens), P61073 [N119A]; experiment: Displacement of 12G5 mAb from CXCR4 N119A mutant (unknown origin) expressed in CHO cells at 500 nM incubated for 40 mins by spectrophotometric method; assay type: cell-based
[5] = test system: C-X-C chemokine receptor type 4 (Homo sapiens), P61073 [Y45A]; experiment: Displacement of 12G5 mAb from CXCR4 Y45A mutant (unknown origin) expressed in CHO cells at 500 nM incubated for 40 mins by spectrophotometric method; assay type: cell-based; conditions: filed as antagonist
[6] = target: C-C chemokine receptor type 5 (Homo sapiens) (UniProt P51681); experiment: Displacement of C-45523 from CCR5 (unknown origin) expressed in CHO cells at 50 uM incubated for 40 mins by competitive binding assay based spectrophotometric method; assay type: cell-based
[7] = test system: C-X-C chemokine receptor type 4 (Homo sapiens), P61073 [D97A]; experiment: Displacement of 12G5 mAb from CXCR4 D97A mutant (unknown origin) expressed in CHO cells at 500 nM incubated for 40 mins by spectrophotometric method; assay type: cell-based
[8] = test system: C-X-C chemokine receptor type 4 (Homo sapiens), P61073 [D262N]; experiment: Displacement of 12G5 mAb from CXCR4 D262N mutant (unknown origin) expressed in CHO cells at 500 nM incubated for 40 mins by spectrophotometric method; assay type: cell-based; conditions: filed as antagonist
[9] = test system: C-X-C chemokine receptor type 4 (Homo sapiens), P61073 [H113A]; experiment: Displacement of 12G5 mAb from CXCR4 H113A mutant (unknown origin) expressed in CHO cells at 500 nM incubated for 40 mins by spectrophotometric method; assay type: cell-based
[10] = test system: Human immunodeficiency virus 1; experiment: Antiviral activity against HIV-1 R5 Bal-6 infected in human PBMC assessed as inhibition of viral replication by measuring reduction in p24 antigen level at 0.1 to 10 uM measured after 5 days by ELISA; assay type: functional, organism-based; conditions: dose 0.1-10 µM, time 5.0 day
[11] = test system: C-X-C chemokine receptor type 4 (Homo sapiens), P61073 [E288Q]; experiment: Displacement of 12G5 mAb from CXCR4 E288Q mutant (unknown origin) expressed in CHO cells at 500 nM incubated for 40 mins by spectrophotometric method; assay type: cell-based; conditions: filed as antagonist
[12] = target: T1, C-X-C chemokine receptor type 4 (Homo sapiens, UniProt P61073); experiment: Antagonist activity against CXCR4 in human SUP-T1 cells assessed as inhibition of SDF-1alpha-induced cell migration at 10 uM preincubated with cells for 30 mins followed by incubation with SDF-1alpha for 3 hrs by CellTiter-96 reagent based transwell assay; conditions: filed as antagonist, time 210.0 min
[13] = target: T1, C-X-C chemokine receptor type 4; experiment: Antagonist activity against CXCR4 in human SUP-T1 cells assessed as inhibition of SDF-1alpha-induced intracellular calcium mobilization by Fluo-4AM dye based fluorescence analysis; assay type: cell-based; conditions: filed as antagonist, dose 0.01-10 µM
[14] = test system: C-X-C chemokine receptor type 4 (Homo sapiens), P61073 [T117A]; experiment: Displacement of 12G5 mAb from CXCR4 T117A mutant (unknown origin) expressed in CHO cells at 500 nM incubated for 40 mins by spectrophotometric method; assay type: cell-based; conditions: filed as antagonist
[15] = test system: C-X-C chemokine receptor type 4 (Homo sapiens), P61073 [F87A]; experiment: Displacement of 12G5 mAb from CXCR4 F87A mutant (unknown origin) expressed in CHO cells at 500 nM incubated for 40 mins by spectrophotometric method; assay type: cell-based
[16] = test system: C-X-C chemokine receptor type 4 (Homo sapiens), P61073 [E288D]; experiment: Displacement of 12G5 mAb from CXCR4 E288D mutant (unknown origin) expressed in CHO cells at 500 nM incubated for 40 mins by spectrophotometric method; assay type: cell-based
[17] = test system: C-X-C chemokine receptor type 4 (Homo sapiens), P61073 [E288A]; experiment: Displacement of 12G5 mAb from CXCR4 E288A mutant (unknown origin) expressed in CHO cells at 500 nM incubated for 40 mins by spectrophotometric method; assay type: cell-based
[18] = target: T1, C-X-C chemokine receptor type 4; experiment: Antagonist activity against EGFP-tagged CXCR4 (unknown origin) transfected in CHO cells assessed as inhibition of SDF-1alpha-induced receptor internalization at 10 uM preincubated for 10 mins followed by SDF-1alpha addition by confocal microscopy; assay type: cell-based; conditions: filed as antagonist
[19] = target: T1, C-X-C chemokine receptor type 4; experiment: Antagonist activity against EGFP-tagged CXCR4 (unknown origin) transfected in CHO cells assessed as inhibition of SDF-1alpha-induced receptor internalization at 0.01 to 10 uM preincubated for 10 mins followed by SDF-1alpha addition by confocal microscopy; assay type: cell-based; conditions: filed as antagonist, dose 0.01-10 µM
[20] = test system: C-X-C chemokine receptor type 4 (Homo sapiens), P61073 [W94A]; experiment: Displacement of 12G5 mAb from CXCR4 W94A mutant (unknown origin) expressed in CHO cells at 500 nM incubated for 40 mins by spectrophotometric method; assay type: cell-based
[21] = test system: Human immunodeficiency virus 1; experiment: Antiviral activity against HIV-1 X4 NL4-3 infected in human PBMC assessed as inhibition of viral replication by measuring reduction in p24 antigen level at 10 uM measured after 5 days by ELISA; assay type: functional, organism-based; conditions: time 5.0 day
[22] = Cytotoxicity against human PBMC assessed as reduction in cell viability at 0.016 to 10 uM incubated for 5 days by CellTiter-Blue assay; assay type: toxicity, cell-based; conditions: 120 h, dose 0.016-10 µM, time 5 day
[23] = target: T1, C-X-C chemokine receptor type 4; experiment: Antagonist activity against CXCR4 in human SUP-T1 cells assessed as inhibition of SDF-1alpha-induced cell migration preincubated with cells for 30 mins followed by incubation with SDF-1alpha for 3 hrs by CellTiter-96 reagent based transwell assay; conditions: filed as antagonist, time 210.0 min
[24] = target: T1, C-X-C chemokine receptor type 4; experiment: Antagonist activity against CXCR4 in human SUP-T1 cells assessed as inhibition of SDF-1alpha-induced intracellular calcium mobilization at 10 uM by Fluo-4AM dye based fluorescence analysis; assay type: cell-based; conditions: filed as antagonist
[25] = test system: C-X-C chemokine receptor type 4 (Homo sapiens), P61073 [W195A]; experiment: Displacement of 12G5 mAb from CXCR4 W195A mutant (unknown origin) expressed in CHO cells at 500 nM incubated for 40 mins by spectrophotometric method; assay type: cell-based
[26] = target: T1, C-X-C chemokine receptor type 4; experiment: Displacement of 12G5 mAb from CXCR4 (unknown origin) expressed in CHO cells incubated for 40 mins by spectrophotometric method; assay type: cell-based

T1 sequence (P61073 whole entry): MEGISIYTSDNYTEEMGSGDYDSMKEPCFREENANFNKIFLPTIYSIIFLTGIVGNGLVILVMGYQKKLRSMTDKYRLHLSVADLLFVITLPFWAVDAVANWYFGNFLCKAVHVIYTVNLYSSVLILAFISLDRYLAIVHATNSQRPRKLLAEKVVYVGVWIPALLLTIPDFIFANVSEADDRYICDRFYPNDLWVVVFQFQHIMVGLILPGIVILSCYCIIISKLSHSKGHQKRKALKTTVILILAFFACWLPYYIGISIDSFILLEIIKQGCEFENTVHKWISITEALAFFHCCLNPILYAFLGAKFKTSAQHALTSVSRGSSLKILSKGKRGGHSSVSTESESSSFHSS
Sequence of C-C chemokine receptor type 5 (Homo sapiens) (P51681 whole entry, looked up): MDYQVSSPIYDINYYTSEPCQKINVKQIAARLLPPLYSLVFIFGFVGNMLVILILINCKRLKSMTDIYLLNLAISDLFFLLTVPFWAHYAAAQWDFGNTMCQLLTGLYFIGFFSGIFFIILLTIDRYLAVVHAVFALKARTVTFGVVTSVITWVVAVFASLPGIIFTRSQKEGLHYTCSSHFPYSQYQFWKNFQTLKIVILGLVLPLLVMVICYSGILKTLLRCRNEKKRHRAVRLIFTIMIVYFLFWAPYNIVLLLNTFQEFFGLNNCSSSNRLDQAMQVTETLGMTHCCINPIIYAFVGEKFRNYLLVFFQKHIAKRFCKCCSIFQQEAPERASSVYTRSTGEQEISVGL
Sequence of C-X-C chemokine receptor type 4 (Homo sapiens), P61073 [F87A] (P61073 whole entry F87A): as the sequence (P61073 whole entry) above, with F87A counted along it
Sequence of C-X-C chemokine receptor type 4 (Homo sapiens), P61073 [E288A] (P61073 whole entry E288A): as the sequence (P61073 whole entry) above, with E288A counted along it
Sequence of C-X-C chemokine receptor type 4 (Homo sapiens), P61073 [Y45A] (P61073 whole entry Y45A): as the sequence (P61073 whole entry) above, with Y45A counted along it
Sequence of C-X-C chemokine receptor type 4 (Homo sapiens), P61073 [D97A] (P61073 whole entry D97A): as the sequence (P61073 whole entry) above, with D97A counted along it
Sequence of C-X-C chemokine receptor type 4 (Homo sapiens), P61073 [E288Q] (P61073 whole entry E288Q): as the sequence (P61073 whole entry) above, with E288Q counted along it
Sequence of C-X-C chemokine receptor type 4 (Homo sapiens), P61073 [T117A] (P61073 whole entry T117A): as the sequence (P61073 whole entry) above, with T117A counted along it
Sequence of C-X-C chemokine receptor type 4 (Homo sapiens), P61073 [D262N] (P61073 whole entry D262N): as the sequence (P61073 whole entry) above, with D262N counted along it
Sequence of C-X-C chemokine receptor type 4 (Homo sapiens), P61073 [D193A] (P61073 whole entry D193A): as the sequence (P61073 whole entry) above, with D193A counted along it
Sequence of C-X-C chemokine receptor type 4 (Homo sapiens), P61073 [W161A] (P61073 whole entry W161A): as the sequence (P61073 whole entry) above, with W161A counted along it
Sequence of C-X-C chemokine receptor type 4 (Homo sapiens), P61073 [H113A] (P61073 whole entry H113A): as the sequence (P61073 whole entry) above, with H113A counted along it
Sequence of C-X-C chemokine receptor type 4 (Homo sapiens), P61073 [E288D] (P61073 whole entry E288D): as the sequence (P61073 whole entry) above, with E288D counted along it
Sequence of C-X-C chemokine receptor type 4 (Homo sapiens), P61073 [W94A] (P61073 whole entry W94A): as the sequence (P61073 whole entry) above, with W94A counted along it
Sequence of C-X-C chemokine receptor type 4 (Homo sapiens), P61073 [Y116A] (P61073 whole entry Y116A): as the sequence (P61073 whole entry) above, with Y116A counted along it
Sequence of C-X-C chemokine receptor type 4 (Homo sapiens), P61073 [W195A] (P61073 whole entry W195A): as the sequence (P61073 whole entry) above, with W195A counted along it
Sequence of C-X-C chemokine receptor type 4 (Homo sapiens), P61073 [N119A] (P61073 whole entry N119A): as the sequence (P61073 whole entry) above, with N119A counted along it

## CC(C)C[C@@H](N)C(=O)NCC(=O)N[C@H](C)C(=O)N[C@H](CO)C(=O)N[C@H](Cc1c[nH]c2ccccc12)C(=O)N[C@H](Cc1cnc[nH]1)C(=O)N[C@H](CCCNC(=N)N)C(=O)N1CCC[C@@H]1C(=O)N[C@H](CC(=O)O)C(=O)N[C@H](CCCCN)C(=O)N[C@H](CCCCN)C(=O)N[C@H](CCCNC(=N)N)C(=O)N(CCCCCC(=O)O)[C@@H](CCCCN)C(=O)N[C@@H](CCCNC(=N)N)C(=O)N[C@@H](CCCCN)C(=O)N[C@@H](CCC(N)=O)C(=O)N[C@@H](CCCNC(=N)N)C(=O)NCC(=O)N1CCC[C@H]1C(=O)NCC(=O)N[C@@H](CCCNC(=N)N)C(=O)N[C@@H](C)C(=O)N[C@@H](Cc1ccccc1)C(N)=O
[1]
  inhibition: inactive
[2]
  inhibition: inactive
[3]
  inhibition: inactive
[4]
  inhibition: inactive
[5]
  inhibition: Active
[6]
  inhibition: 17.2%
[7]
  inhibition: inactive
[8]
  inhibition: Active
[9]
  inhibition: inactive
[10]
  Activity: inactive
[11]
  inhibition: Active
[12]
  inhibition: 100%
[13]
  inhibition: Dose-Dependent Effect
[14]
  inhibition: Active
[15]
  inhibition: inactive
[16]
  inhibition: inactive
[17]
  inhibition: inactive
[18]
  inhibition: 100%
[19]
  inhibition: Active
[20]
  inhibition: inactive
[21]
  Activity: Active
[22]
  Activity: Non-Toxic
[23]
  inhibition: Dose-Dependent Effect
[24]
  inhibition: 100%
[25]
  inhibition: inactive

## CC(C)C[C@@H](N)C(=O)NCC(=O)N[C@H](C)C(=O)N[C@H](CO)C(=O)N[C@H](Cc1c[nH]c2ccccc12)C(=O)N[C@H](Cc1cnc[nH]1)C(=O)N[C@H](CCCNC(=N)N)C(=O)N1CCC[C@@H]1C(=O)N[C@H](CC(=O)O)C(=O)N[C@H](CCCCN)C(=O)N[C@H](CCCCN)C(=O)N[C@H](CCCNC(=N)N)C(=O)N(CCCCCC(=O)O)[C@@H](CCCCN)C(=O)N[C@@H](CCCNC(=N)N)C(=O)N[C@@H](CCCCN)C(=O)N[C@H](CS)C(=O)N[C@H](C(=O)N[C@@H](CCCNC(=N)N)C(=O)N1CCC[C@H]1C(=O)N[C@@H](CC(N)=O)C(=O)N[C@@H](CC(N)=O)C(=O)N[C@@H](CC(N)=O)C(=O)N[C@H](C(N)=O)[C@H](C)O)[C@H](C)O
[6]
  inhibition: 10.4%
[26]
  IC50: 48 nM

## CC(C)C[C@@H](N)C(=O)NCC(=O)N[C@H](C)C(=O)N[C@H](CO)C(=O)N[C@H](Cc1c[nH]c2ccccc12)C(=O)N[C@H](Cc1cnc[nH]1)C(=O)N[C@H](CCCNC(=N)N)C(=O)N1CCC[C@@H]1C(=O)N[C@H](CC(=O)O)C(=O)N[C@H](CCCCN)C(=O)N[C@H](CCCCN)C(=O)N[C@H](CCCNC(=N)N)C(=O)N(CCCCCC(=O)O)[C@@H](CCCCN[C@H](CS)C(=O)N[C@H](C(=O)N[C@@H](CCCNC(=N)N)C(=O)N1CCC[C@H]1C(=O)N[C@@H](CC(N)=O)C(=O)N[C@@H](CC(N)=O)C(=O)N[C@@H](CC(N)=O)C(=O)N[C@H](C(=O)N[C@@H](CCCCN)C(=O)N[C@@H](CCCNC(=N)N)C(N)=O)[C@H](C)O)[C@H](C)O)C(N)=O
[10]
  Activity: inactive
[26]
  IC50: 25.4 nM
[21]
  Activity: Active
[22]
  Activity: Non-Toxic

## CC(C)C[C@@H](N)C(=O)NCC(=O)N[C@H](C)C(=O)N[C@H](CO)C(=O)N[C@H](Cc1c[nH]c2ccccc12)C(=O)N[C@H](Cc1cnc[nH]1)C(=O)N[C@H](CCCNC(=N)N)C(=O)N1CCC[C@@H]1C(=O)N[C@H](CC(=O)O)C(=O)N[C@H](CCCCN)C(=O)N[C@H](CCCCN)C(=O)N[C@H](CCCNC(=N)N)C(N)=O (H-[dL]G[dA][dS][dW][dH][dR][dP][dD][dK][dK][dR]-NH2)
[26]
  IC50: 531 nM
